Results taken from patent publication US20250241926A1, “HETEROCYCLIC COMPOUNDS FOR USE IN THE TREATMENT OF CANCER” (ARTIOS PHARMA LIMITED, priority 2021, published 2025).
Read-outs that look alike come from different tables or passages of the source.

Molecular target: T1, Human Polθ polymerase domain (aa1820-2590) (Homo sapiens, UniProt O75417)
T1 construct: Human Polθ polymerase domain (aa1820-2590) was expressed in E. Coli; made in house; host or cells: E. coli
T1 sequence (O75417 1820-2590): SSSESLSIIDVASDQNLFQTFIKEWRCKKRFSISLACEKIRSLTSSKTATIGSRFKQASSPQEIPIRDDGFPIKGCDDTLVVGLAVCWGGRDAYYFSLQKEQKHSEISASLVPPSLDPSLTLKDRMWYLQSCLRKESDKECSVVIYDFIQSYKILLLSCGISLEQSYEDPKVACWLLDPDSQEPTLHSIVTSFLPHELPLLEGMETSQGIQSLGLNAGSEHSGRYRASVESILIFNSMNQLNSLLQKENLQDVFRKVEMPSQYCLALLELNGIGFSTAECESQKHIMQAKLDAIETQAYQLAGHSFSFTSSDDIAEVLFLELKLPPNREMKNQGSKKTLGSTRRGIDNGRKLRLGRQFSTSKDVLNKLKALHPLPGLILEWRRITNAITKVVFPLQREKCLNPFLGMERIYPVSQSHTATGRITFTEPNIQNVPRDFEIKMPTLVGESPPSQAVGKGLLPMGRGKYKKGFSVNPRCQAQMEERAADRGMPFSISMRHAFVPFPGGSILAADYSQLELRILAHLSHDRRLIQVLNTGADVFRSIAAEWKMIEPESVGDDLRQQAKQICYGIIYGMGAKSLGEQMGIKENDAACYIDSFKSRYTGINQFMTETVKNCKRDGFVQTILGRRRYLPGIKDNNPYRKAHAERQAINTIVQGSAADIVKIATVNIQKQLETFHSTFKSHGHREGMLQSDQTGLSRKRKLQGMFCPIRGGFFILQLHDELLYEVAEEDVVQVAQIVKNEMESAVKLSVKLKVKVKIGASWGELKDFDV
Assay: Polθ Polymerase Domain Kinact/Kl Assay (PicoGreen)
Format: biochemical
Settings: covalent inhibitors, kobs vs [I] fit, 0.8 nM Polθ, 100 nM DNA substrate
Description: Polθ Polymerase Domain Kinact/Kl Assay
A PicoGreen assay was used to measure the Kinact and Kl values of covalent compounds that inhibit the activity of Polθ in vitro.
Human Polθ polymerase domain (aa1820-2590) was expressed in E. Coli, purified, aliquoted and stored at −80° C. until required. Polθ substrate was generated from a 1.2:1 mix of DNA II Short to DNA II Long to give a final concentration of […] substrate in annealing buffer (20 mM Tris pH 7.5, 50 mM NaCl). The substrate was heated in 50 mL aliquots to 95° C. in a heating block for 5 min before the heating block switched off, the reaction left to cool to rt and stored at −20° C. until required.
Assay measurements were performed with 1× buffer comprising 25 mM Tris pH 7.5, 12.5 mM NaCl, […], 5% (v/v) glycerol, 0.01% v/v Triton x-100, 0.1 mg/ml BSA, 1 mM DTT. Test compounds were prepared by dilution in 100% DMSO to give a 12 μM intermediate stock of each (100× final top concentration). 100 nL of 23× 1:1.5-fold serial dilutions and a DMSO only control were dispensed using the Tecan dispenser into Greiner 384 well black low volume plates (product code 784076). DMSO concentration was maintained at 1% of the final assay volume by back filling with DMSO.
2× Working stock of substrate (200 nM of DNA substrate and […] dNTPs) and enzyme (1.4 nM Polθ) were made up in assay buffer. 5 μL/well of both enzyme and substrate 2× solutions were dispensed using a Tempest dispenser (Formulatrix) into assay plates that had been pre-dispensed with compound to give a final assay concentration of 100 nM DNA substrate, […] dNTPs and 0.8 nM Polθ. To stop the reaction, […] of a solution containing 25 mM Tris-HCl pH 7.5 and 20 mM EDTA was added at […] (t=0, 2.5, 5, 7.5, 10, 12.5, 15, 20, 25, 30, 35, 40, 45, 50, 55 and 60 min) using the Tempest's time delay function. The plates were covered during the time course to prevent evaporation. After completing the assay, 5 μL of detection reagent (25 mM Tris-HCl pH 7.5 and 2.5% (v/v) PicoGreen) was dispensed into the wells using a Tempest liquid handler (Formulatrix) and plates subsequently read on the CLARIOstar Plus (BMG Labtech) using the default optical settings for fluorescein and the auto gain/focus settings.
All data analysis was carried out using GraphPad Prism V. 8 (GraphPad Software Inc, San Diego, CA) Time course data for each inhibitor concentration was fitted to equation 1 to determine kobs values.^1 Any time points where the control (DMSO alone) reaction was no longer linear were excluded from the analysis.
A secondary plot of kobs vs [I] is used to determine the Kinact and Kl parameters (for a 2-step covalent inhibitor) by fitting to equation 2.1
[formula] • 1) Evaluation of Enzyme Inhibitors in Drug Discovery (Ch9), R. A Copeland, Wiley, 2nd Edition 2013.

Q: How did the kinact/KI (read-out: Kinact/KI) turn out when `C=CC(=O)N1CC2(CN(CCN3CC[C@H](Nc4nc(C)cc(C(F)(F)F)c4C#N)C(=O)N(C)c4cccc(C)c43)CCN2)C1` [Example 69, (S)-2-((6-(2-(2-Acryloyl-2,5,8-triazaspiro[3.5]nonan-8-yl)ethyl)-1,7-dimethyl-2-oxo-1,2,3,4,5,6-hexahydrobenzo[b][1,4]diazocin-3-yl)amino)-6-methyl-4-(trifluoromethyl)nicotinonitrile] was run?
A: 4.1e+06 M⁻¹ s⁻¹

Q: `C=CC(=O)N1CC(N2CCN(CCN3CC[C@H](Nc4nc(C)cc(C(F)(F)F)c4C#N)C(=O)N(C)c4cccc(F)c43)C[C@H]2C)C1` [Example 16, 2-(((S)-6-(2-((R)-4-(1-Acryloylazetidin-3-yl)-3-methylpiperazin-1-yl)-ethyl)-7-fluoro-1-methyl-2-oxo-1,2,3,4,5,6-hexa-hydrobenzo[b][1,4]diazocin-3-yl)amino)-6-methyl-4-(trifluorometh-yl)nicotinonitrile] was tested. Which kinact/KI (read-out: Kinact/KI) did it give?
A: 540000 M⁻¹ s⁻¹

Q: `C=CC(=O)N1CC2(CC(CN3CC[C@H](Nc4nc(C)cc(C(F)(F)F)c4C#N)C(=O)N(C)c4ccccc43)C2)C1` [Example 52, (S)-2-((6-((2-Acryloyl-2-azaspiro[3.3]heptan-6-yl)methyl)-1-methyl-2-oxo-1,2,3,4,5,6-hexahydrobenzo[b][1,4]diazocin-3-yl)amino)-6-methyl-4-(trifluoromethyl)nicotinonitrile] was tested. Which kinact/KI (read-out: Kinact/KI) did it give?
A: 150000 M⁻¹ s⁻¹

Q: For `C=CC(=O)N1CC2(CN(CCN3CC[C@H](Nc4nc(C)cc(C(F)(F)F)c4C#N)C(=O)N(C)c4cccc(F)c43)CCN2C(C)=O)C1` [Example 71, (S)-2-((6-(2-(5-Acetyl-2-acryloyl-2,5,8-triazaspiro[3.5]nonan-8-yl)ethyl)-7-fluoro-1-methyl-2-oxo-1,2,3,4,5,6-hexahydrobenzo[b][1,4]diazocin-3-yl)amino)-6-methyl-4-(trifluoromethyl)nicotinonitrile], which kinact/KI (read-out: Kinact/KI) is on record?
A: 1.4e+06 M⁻¹ s⁻¹

Q: Which kinact/KI (read-out: Kinact/KI) does the source give for `Cc1cc(C(F)(F)F)c(C#N)c(N[C@H]2CCN(CCCOC3CN(C(=O)/C=C/CN(C)C)C3)c3cc(F)ccc3N(C)C2=O)n1` [Example 42, (S,E)-2-((6-(3-((1-(4-(Dimethylamino)but-2-enoyl)azetidin-3-yl)oxy)propyl)-8-fluoro-1-methyl-2-oxo-1,2,3,4,5,6-hexahydrobenzo[b][1,4]diazocin-3-yl)amino)-6-methyl-4-(trifluoromethyl)nicotinonitrile] here?
A: 820000 M⁻¹ s⁻¹

Q: `C=CC(=O)N1CCN(CC(O)CN2CC[C@H](Nc3nc(C)cc(C(F)(F)F)c3C#N)C(=O)N(C)c3ccccc32)CC1` (stereo partly drawn) [Example 35, 2-(((3S)-6-(3-(4-Acryloylpiperazin-1-yl)-2-hydroxypropyl)-1-methyl-2-oxo-1,2,3,4,5,6-hexahydrobenzo[b][1,4]diazocin-3-yl)amino)-6-methyl-4-(trifluoromethyl)nicotinonitrile] was tested. Which kinact/KI (read-out: Kinact/KI) did it give?
A: 340000 M⁻¹ s⁻¹

Q: With `C#CCN1CCN(CCN2CC[C@H](Nc3nc(C)cc(C(F)(F)F)c3C#N)C(=O)N(C)c3cccc(F)c32)CC12CN(C(=O)/C=C/CN(C)C)C2` [Example 26, (S,E)-2-((6-(2-(2-(4-(Dimethylamino)but-2-enoyl)-5-(prop-2-yn-1-yl)-2,5,8-triazaspiro[3.5]nonan-8-yl)ethyl)-7-fluoro-1-methyl-2-oxo-1,2,3,4,5,6-hexahydrobenzo[b][1,4]diazocin-3-yl)amino)-6-methyl-4-(trifluoromethyl)nicotinonitrile] as the molecule, how does the kinact/KI (read-out: Kinact/KI) read?
A: 2.1e+06 M⁻¹ s⁻¹

Q: How did the kinact/KI (read-out: Kinact/KI) turn out when `C=CC(=O)N1CC2(CCCN(CCN3CC[C@H](Nc4nc(C)cc(C(F)(F)F)c4C#N)C(=O)N(C)c4cccc(F)c43)C2)C1` [Example 9, (S)-2-((6-(2-(2-Acryloyl-2,6-diazaspiro[3.5]nonan-6-yl)ethyl)-7-fluoro-1-methyl-2-oxo-1,2,3,4,5,6-hexahydrobenzo[b][1,4]diazocin-3-yl)amino)-6-methyl-4-(trifluorometh-yl)nicotinonitrile] was run?
A: 300000 M⁻¹ s⁻¹

Q: For `C=CC(=O)N1CC(n2cnc(CN3CC[C@H](Nc4nc(C)cc(C(F)(F)F)c4C#N)C(=O)N(C)c4cccc(F)c43)n2)C1` [Example 66, (S)-2-((6-((1-(1-Acryloylazetidin-3-yl)-1H-1,2,4-triazol-3-yl)methyl)-7-fluoro-1-methyl-2-oxo-1,2,3,4,5,6-hexahydrobenzo[b][1,4]diazocin-3-yl)amino)-6-methyl-4-(trifluoromethyl)nicotinonitrile], which kinact/KI (read-out: Kinact/KI) is on record?
A: 2.4e+06 M⁻¹ s⁻¹

Q: How did the kinact/KI (read-out: Kinact/KI) turn out when `C=CC(=O)N1CC2(CN(CCN3CC[C@H](Nc4nc(C)cc(C(F)(F)F)c4C#N)C(=O)N(C)c4cccc(Cl)c43)C[C@@H](C)N2)C1` [Example 64, 2-(((S)-6-(2-((R)-2-Acryloyl-6-methyl-2,5,8-triazaspiro[3.5]nonan-8-yl)ethyl)-7-chloro-1-methyl-2-oxo-1,2,3,4,5,6-hexahydrobenzo[b][1,4]diazocin-3-yl)amino)-6-methyl-4-(trifluoromethyl)nicotinonitrile] was run?
A: 1.8e+06 M⁻¹ s⁻¹

Q: For “(S)-2-((6-(2-(4-(1-Acrylo- ylazetidin-3-yl)piperazin- 1-yl)ethyl)-7-fluoro-1- methyl-2-oxo-1,2,3,4,5,6- hexahydrobenzo[b][1,4] diazocin-3-yl)amino)-6- methyl-4-(trifluorometh- yl)nicotinonitrile [Example 11]”, which kinact/KI is on record?
A: 500000 M⁻¹ s⁻¹

Q: For `C=CC(=O)N1CC2(CN(CCN3CC[C@H](Nc4nc(C)cc(C(F)(F)F)c4C#N)C(=O)N(C)c4cccc(F)c43)C[C@@H]3COCCN32)C1` [Example 61, 2-(((S)-6-(2-((R)-1-A cryloyltetrahydro-1′H-spiro[azetidine-3,6′-pyrazino[2,1-c][1,4]oxazin]-8′(7′H)-yl)ethyl)-7-fluoro-1-methyl-2-oxo-1,2,3,4,5,6-hexahydrobenzo[b][1,4]diazocin-3-yl)amino)-6-methyl-4-(trifluoromethyl)nicotinonitrile], which kinact/KI (read-out: Kinact/KI) is on record?
A: 500000 M⁻¹ s⁻¹

Q: For `Cc1cc(C(F)(F)F)c(C#N)c(N[C@H]2CCN(CCCOC3CN(C(=O)/C=C/CN(C)C)C3)c3c(F)cccc3N(C)C2=O)n1` [Example 40, (S,E)-2-((6-(3-((1-(4-(Dimethylamino)but-2-enoyl)azetidin-3-yl)oxy)propyl)-7-fluoro-1-methyl-2-oxo-1,2,3,4,5,6-hexahydrobenzo[b][1,4]diazocin-3-yl)amino)-6-methyl-4-(trifluoromethyl)nicotinonitrile], which kinact/KI (read-out: Kinact/KI) is on record?
A: 3e+06 M⁻¹ s⁻¹

Q: `Cc1cc(C(F)(F)F)c(C#N)c(N[C@H]2CCN(CCN3CC4(C3)CN(C(=O)/C=C/CN(C)C)C4)c3ccccc3N(C)C2=O)n1` [Example 4, (S,E)-2-((6-(2-(6-(4-(Dimethylamino)but-2-enoyl)-2,6-diazaspiro[3.3]heptan-2-yl)ethyl)-1-methyl-2-oxo-1,2,3,4,5,6-hexahydrobenzo[b][1,4]diazocin-3-yl)amino)-6-methyl-4-(trifluoromethyl)nicotinonitrile] was tested. Which kinact/KI (read-out: Kinact/KI) did it give?
A: 300000 M⁻¹ s⁻¹
